Measurements published in paper PMC3390344, “Antibacterial Activity and Mechanism of a Scorpion Venom Peptide Derivative In Vitro and In Vivo” (PLoS ONE, 2012).
Ends that are not written are not given here.

Tests used:
E. coli AB94012 = experiment: Transmission electron microscopy; format: cell-based; settings: E. coli AB94012, 1×MIC, treated for 2 min, semi-thin sections
Experimental: (§1) Figure 6 Transmission electron microscopy of S. aureus and E. coli treated with Kn2-7. (A) Transmission electron microscopy was performed with Kn2-7-treated S. aureus. (A1), (A2) and (A3) were negative controls. (A4), (A5) and (A6) show S. aureus treated with Kn2-7 for 2 min. (A7), (A8) and (A9) show S. aureus treated with BmKn2 for 2 min. (B) Transmission electron microscopy was performed with Kn2-7-treated E. coli. (B1), (B2) and (B3) were the negative controls. (B4), (B5) and (B6) show E. coli treated with Kn2-7 for 2 min. (B7), (B8) and (B9) show E. coli treated with BmKn2 for 2 min.
(§2) Overnight-cultured S. aureus AB94004 and E. coli AB94012 were transferred to LB medium and cultured to the exponential phase. A 200 µl aliquot of the peptide solution was added to 800 µl of the bacterial suspensions at the final concentration of 1×MIC. The samples were cut into semi-thin sections. Microscopy was performed using a HITACHI H-8100 Transmission Electron Microscope.

S. aureus AB94004 = experiment: Transmission electron microscopy; format: cell-based; settings: 1×MIC, treated for 2 min, semi-thin sections
Experimental: as §1, §2

FIKRIARLLRKIF [Kn2-7]
Structural changes of cell wall and membrane (TEM) (E. coli AB94012): formed microspheres that surrounded the bacteria | Structural changes of cell wall and membrane (TEM) (S. aureus AB94004): disrupted immediately
